{"source": "patent US10806741B2", "about": "“Treatments for free-living amoebic infections” (Profounda, Inc., priority 2018, dated 2020)", "key": {"[1]": {"conditions": "in vivo; cited from earlier work"}, "Naegleria fowleri [2]": {"tested_on": "Naegleria fowleri", "conditions": "Naegleria fowleri in the laboratory; cited from earlier work"}, "[3]": {"assay": "solubility of miltefosine", "assay_type": "physicochemical", "from_the_text": "The chemical name of miltefosine is 2-[[(hexadecyloxy)hydroxyphosphenyl]oxy]-N,N,N-trimethylethylammonium inner salt, also known as hexadecylphosphocholine, represented by the formula (I). The empirical formula is C21H46NO4P, yielding a molecular weight of 407.57 g/mol.\nThus, according to certain aspects of the presently disclosed invention, the miltefosine may be administered as an oral formulation that is a liquid, such as included in a liquid capsule that may be swallowed, or as a formulation that a patient may drink. The miltefosine may be applied directly to body tissues such as skin or cornea. Alternatively, the miltefosine may be formulated as a solution that may be administered intravenously, such as formulated in a sterile saline solution."}, "Acanthamoeba [4]": {"tested_on": "Acanthamoeba", "assay": "patients with Acanthamoeba keratitis treated with systemically administered (oral) miltefosine", "assay_type": "in vivo, human", "from_the_text": "Such infections have typically been hard to treat as the standard topical treatments generally don't permeate through the various tissue layers to the cysts of the amoeba. […] Previous treatment protocols for Acanthamoeba keratitis have only included topically applied agents such as biocides, and it is not clear from reported results whether cyst reduction was present at the end of these treatment protocols. Moreover, prior to 1996, every patient diagnosed with Acanthamoeba keratitis eventually lost the infected eye.\nSince AK is commonly misdiagnosed, the stage of the disease when it is successfully identified varies greatly. […] A major advantage of the presently disclosed methods is that such patients could receive steroids after surgery while also receiving either or both of the systemic and topical formulations of miltefosine, and optional additional second agents.\nMedication was discontinued for one week, during which time the patient experienced renewed symptoms."}, "Acanthamoeba [5]": {"tested_on": "Acanthamoeba", "conditions": "topical administration, 160 μM, 28 days treatment; hamsters exposed to Acanthamoeba for 5 days; cited from earlier work"}, "Naegleria fowleri [6]": {"tested_on": "Naegleria fowleri", "conditions": "Mexico, Arkansas, and Florida patients; cited from earlier work"}}, "data": [{"substance": "2-[[(hexadecyloxy)hydroxyphosphenyl]oxy]-N,N,N-trimethylethylammonium inner salt [miltefosine]", "values": [{"measurement": "half-life", "setting": "[1]", "result": "long half-life"}, {"measurement": "amoeba-killing activity", "setting": "Naegleria fowleri [2]", "result": "amoeba-killing activity"}, {"measurement": "solubility", "setting": "[3]; aqueous solutions", "result": "freely soluble"}, {"measurement": "solubility", "setting": "[3]; water, 0.1 N HCl or NaOH, methanol, and ethanol", "result": "freely soluble"}, {"measurement": "efficacy against Acanthamoeba keratitis, active feeding amoeba and cysts in the eyes", "setting": "Acanthamoeba [4]; oral formulation, over eighty patients, more than a third treated for at least two months", "result": "effective to treat Acanthamoeba keratitis and was able to kill both active feeding amoeba and cysts in the eyes"}, {"measurement": "outcome of case study (AK infection)", "setting": "Acanthamoeba [4]; patient, oral 50 mg TID just over a month, then 50 mg BID for an additional two months, with short course of oral steroids", "result": "clear the AK infection"}, {"measurement": "complete cure of hamsters", "setting": "Acanthamoeba [5]", "result": 85, "unit": "%"}, {"measurement": "survival of PAM patients", "setting": "Naegleria fowleri [6]", "result": "survived"}]}]}
